Converted amounts (≈) assume the structure as drawn. Where two headings read alike, the source gives them in different places. Values belong to the compound of their own block, whether it stands above or below them.
Columns and labels:
[1] = clinical trials; cited from earlier work
physchem = format: physicochemical
Procedure: The water solubility of enasidenib and enasidenib-O-D-glucoside was investigated by suspending excess amounts of the two compounds in 200 μl of distilled water in a microcentrifuge tube at 25° C. for 12 h. Afterwards, each sample was centrifuged at 12,000×g for 20 min. The supernatant of each sample was then filtered through a 0.45-μm membrane filter and the concentration of the compound in the supernatant, which is defined as the water-soluble component, was measured by its absorbance at 254 nm using HPLC, and its absolute solubility was calculated in reference to the concentration-absorbance standard curve.

[2] = test system: IDH2 R140 and R172 mutant homodimers or heterodimers; conditions: cited from earlier work
cell culture assays = conditions: cited from earlier work
[3] = test system: AML patients with an IDH2 mutation; conditions: cited from earlier work
[4] = cited from earlier work
human AML patients = conditions: cited from earlier work
[5] = test system: mouse xenograft models of AML; conditions: cited from earlier work
[6] = 100 mg dose; cited from earlier work
[7] = test system: cancer cell lines containing endogenous or exogenously expressed mutant IDH2; conditions: cancer cell lines with endogenous or exogenously expressed mutant IDH2; cited from earlier work
UGT1A1 = target: T1, UGT1A1 (Homo sapiens, UniProt P22309); conditions: side effect: abnormal bilirubin metabolism; cited from earlier work
T1 sequence (P22309 26-533): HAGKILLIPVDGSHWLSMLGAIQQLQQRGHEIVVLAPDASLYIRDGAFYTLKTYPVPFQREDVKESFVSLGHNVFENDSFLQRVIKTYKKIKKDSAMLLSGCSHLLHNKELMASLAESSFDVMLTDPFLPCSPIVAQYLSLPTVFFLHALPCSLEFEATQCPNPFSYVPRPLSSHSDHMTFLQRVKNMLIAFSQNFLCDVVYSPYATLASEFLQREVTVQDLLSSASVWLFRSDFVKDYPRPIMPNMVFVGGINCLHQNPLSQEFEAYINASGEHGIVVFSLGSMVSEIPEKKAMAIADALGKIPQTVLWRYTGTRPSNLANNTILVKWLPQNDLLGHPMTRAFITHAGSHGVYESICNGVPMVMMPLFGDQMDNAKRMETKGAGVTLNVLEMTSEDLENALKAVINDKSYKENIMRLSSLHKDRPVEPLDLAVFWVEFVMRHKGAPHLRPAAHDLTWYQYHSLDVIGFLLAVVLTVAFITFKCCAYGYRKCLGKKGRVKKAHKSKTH

[8] = in vivo; cited from earlier work

solubility at 12 h (physchem; 25 °C, water, thermodynamic from solid): 6 µg/mL (≈ 12.7 µM)
Compound: CC(C)(O)CNc1nc(Nc2ccnc(C(F)(F)F)c2)nc(-c2cccc(C(F)(F)F)n2)n1 [enasidenib, Enasidenib]
patients who completely discontinued enasidenib [1]: 17%
patients who had to stop taking the drug as a result of adverse events [1]: 43%
patients with serious adverse events [1]: approximately 77%
lower inhibitory concentration for mutant IDH2 compared to the wild type IDH2 ([2]; R140 and R172 mutant homodimers or heterodimers versus wild type IDH2): approximately 40 fold
inhibition kinetics ([2]; kinetics assays): slow on/slow off tight binding inhibition kinetics
differentiation (cell culture assays): induced differentiation
AML patients with an IDH2 mutation who experienced complete remission ([3]; human, in vivo): 19.3%
overall response rate ([3]; single therapeutic, AML and relapsed/refractory-AML patients with an IDH2 mutation): 41%
aqueous solubility [4]: less than 74 μg/mL
aqueous solubility ([4]; pH 7.4 (Yen et al. 2017)): 23 µM (≈ 10.9 µg/mL)
2-HG concentration (human AML patients): reduced the 2-HG concentration
2-HG concentration [5]: reduced the 2-HG concentration
oral bioavailability [6]: 57%
2-HG concentration [7]: reduced the 2-HG concentration
UGT1A1 inhibition (UGT1A1): inhibition of UGT1A1

Compound: C[C@@H](Nc1nc(N[C@H](C)C(F)(F)F)nc(-c2cccc(Cl)n2)n1)C(F)(F)F [AG-881]
blood-brain barrier penetration [8]: can penetrate the blood-brain barrier

water solubility (physchem): 40 mg/L (≈ 62.9 µM)
water solubility relative to enasidenib (physchem): 7 times
Compound: CC(C)(CNc1nc(Nc2ccnc(C(F)(F)F)c2)nc(-c2cccc(C(F)(F)F)n2)n1)OC1O[C@H](CO)[C@@H](O)[C@H](O)[C@H]1O (stereo partly drawn) [enasidenib-O-D-glucoside]

Source: patent US20230193336A1, “ENASIDENIB GLYCOSIDES AND METHODS OF TREATING DISEASES ASSOCIATED WITH ISOCITRATE DEHYDROGENASE (IDH) DYSFUNCTION” (Double Rainbow Biosciences Inc., priority 2020, published 2023)
